Laboratory results taken from US8247610B2, “Amine linked modulators of γ-secretase” (Janssen Pharmaceutica N.V., priority 2007, dated 2012).

Biological target: T1, γ-secretase (Homo sapiens, UniProt P49768)
T1 construct: endogenous in cells; host or cells: SKNBE2 cells carrying APP 695 wild type
Assay: Screening for γ-secretase-modulating activity in SKNBE2 cells carrying the APP 695 wild type
Type: cell-based
Conditions: SKNBE2 cells carrying APP 695 wild type
Procedure: Screening of the Compounds of the Invention for γ-Secretase-Modulating Activity
Screening was carried out using SKNBE2 cells carrying the APP 695—wild type, grown in DMEM/NUT-mix F12 (HAM) provided by Gibco (cat no. 31330-38) containing 5% Serum/Fe supplemented with 1% non-essential amino acids.
Cells were grown to near confluency.
The screening was performed using the assay as described in Citron et al (1997) Nature Medicine 3: 67.

CC(C)CCN(c1ccc(C(F)(F)F)cc1)c1cc(-c2ccc(C(F)(F)F)cc2)cc(C(CC(C)C)C(=O)O)c1 (stereo not shown) [Example 20, 4-Methyl-2-{5-[(3-methyl-butyl)-(4-trifluoromethyl-phenyl)-amino]-4′-trifluoromethyl-biphenyl-3-yl}-pentanoic acid]
EC50: 170 nM

CC(C)CC(=O)N(c1ccc(Cl)cc1)c1cc(-c2ccc(C(F)(F)F)cc2)cc(C(CC(C)C)C(=O)O)c1 (stereo not shown) [Example 23, 2-{5-[(4-Chloro-phenyl)-(3-methyl-butyryl)-amino]-4′-trifluoromethyl-biphenyl-3-yl}-4-methyl-pentanoic acid]
inhibition at 0.3 µM: 21%

CC(C)CC(C(=O)O)c1cc(-c2ccc(C(F)(F)F)cc2)cc(N2CCc3ccccc32)c1 (stereo not shown) [Example 24, 2-[5-(2,3-Dihydro-indol-1-yl)-4′-trifluoromethyl-biphenyl-3-yl]-4-methyl-pentanoic acid]
inhibition at 0.3 µM: 0%

CC(C)CC(C(=O)O)c1cc(-c2cc(F)cc(C(F)(F)F)c2)cc(N(C)c2cc(C(F)(F)F)cc(C(F)(F)F)c2)c1 (stereo not shown) [Example 25, 2-[5′-Fluoro-5-(N-[3,5-bis-(trifluoromethyl)phenyl]-N-methylamino)-3′-trifluoromethyl-biphenyl-3-yl]-4-methyl-pentanoic acid]
EC50: 600 nM
